Reference: ChEMBL document CHEMBL6078660, “Goondomycins A-H: Carbocyclic ansa-Polyketides from an Australian Pasture Streptomyces with Selective Activity against Dirofilaria immitis” (J Nat Prod, 2024)
Peptide text beside a SMILES is read from it. * marks the point of attachment. NHCH2CH2OH = OCCN*; For = O=C*

Key:
Haemonchus contortus = test: Anthelmintic activity against Haemonchus contortus L1 to L3 stage assessed as larvae development incubated for 4 days; format: functional, organism-based; conditions: 96 h
Staphylococcus aureus = test: Antibacterial activity against Staphylococcus aureus ATCC 25923 assessed as inhibition of bacterial growth incubated for 24 hrs by spectrophotometer based analysis; format: functional, organism-based; conditions: ATCC 25923, 24 h
[1] = Cytotoxicity against human NCI-H460 cells incubated for 24 hrs by MTT assay; format: toxicity, cell-based
[2] = Cytotoxicity against human SW620 cells incubated for 24 hrs by MTT assay; format: toxicity, cell-based, SW-620
Dirofilaria immitis [3] = test: Anthelmintic activity against Dirofilaria immitis microfilaria stage assessed as inhibition of motility incubated for approximately 72 hrs; format: functional, organism-based
Candida albicans = test: Antifungal activity against Candida albicans ATCC 10231 assessed as inhibition of fungal growth incubated for 48 hrs by spectrophotometer based analysis; format: functional, organism-based; conditions: ATCC 10231, 48 h
Escherichia coli = test: Antibacterial activity against Escherichia coli ATCC 11775 assessed as inhibition of bacterial growth incubated for 24 hrs by spectrophotometer based analysis; format: functional, organism-based; conditions: ATCC 11775, 24 h
Dirofilaria immitis [4] = test: Anthelmintic activity against Dirofilaria immitis L4 stage assessed as inhibition of motility incubated for approximately 72 hrs; format: functional, organism-based

SMILES | EC50 (Haemonchus contortus) | IC50 (Staphylococcus aureus) | IC50 at 24 h [1] | IC50 at 24 h [2] | EC50 (Dirofilaria immitis [3]) | IC50 (Candida albicans) | IC50 (Escherichia coli) | EC50 (Dirofilaria immitis [4])
CC[C@H](C)[C@H]1O[C@]2(CC[C@@H]1C)C[C@@H]1C[C@@H](C/C=C(\C)[C@@H](O[C@H]3C[C@H](OC)[C@@H](O[C@H]4C[C@H](OC)[C@@H](O)[C@H](C)O4)[C@H](C)O3)[C@@H](C)/C=C/C=C3\CO[C@@H]4[C@H](O)C(C)=C[C@@H](C(=O)O1)[C@]34O)O2 | 0.001 µM | – | – | – | – | – | – | –
CC1=C2O[C@]3(O)C(N)=C2C(=C(O)C1=O)[C@@H]1O[C@@H](CC[C@H](C)/C=C(\C)C[C@@H](C)C[C@@H]3C)[C@H](C)[C@H](O)[C@@H]1C | 24 µM | ≥ 3.6 µM | > 30 µM | > 30 µM | 0.5 µM | > 30 µM | > 30 µM | 5 µM
CSC1=C2C3=C(C)C(=O)C(O)=C2[C@@H]2O[C@@H](CC[C@H](C)/C=C(\C)C[C@@H](C)C[C@H](C)[C@]1(O)O3)[C@H](C)[C@H](O)[C@@H]2C | 30 µM | ≥ 3.6 µM | 13.5 µM | 2.4 µM | 0.3 µM | > 30 µM | > 30 µM | 1.4 µM
C/C1=C\[C@@H](C)CC[C@@H]2O[C@@H](c3c(O)c(O)c(C)c4c3C(=O)[C@@](O)(O4)[C@@H](C)C[C@H](C)C1)[C@@H](C)[C@@H](O)[C@H]2C | 50 µM | ≥ 3.6 µM | > 30 µM | > 30 µM | 1.3 µM | > 30 µM | > 30 µM | 24 µM
CC1=c2oc3c(O)c2=C(C(=O)C1=O)[C@@H]1O[C@@H](CC[C@H](C)/C=C(\C)C[C@@H](C)C[C@@H]3C)[C@H](C)[C@H](O)[C@@H]1C | 43 µM | ≥ 3.6 µM | > 30 µM | > 30 µM | 0.2 µM | > 30 µM | > 30 µM | 1.8 µM
CC1=C2O[C@]3(O)C=C2C(=C(O)C1=O)[C@@H]1O[C@@H](CC[C@H](C)/C=C(\C)C[C@@H](C)C[C@@H]3C)[C@H](C)[C@H](O)[C@@H]1C | 49 µM | ≥ 3.6 µM | > 30 µM | > 30 µM | 4.1 µM | > 30 µM | > 30 µM | 18 µM
CC[C@]1([C@H]2O[C@H]([C@@H]3O[C@](O)(CO)[C@@H](C)C[C@H]3C)C[C@H]2C)CC[C@@H]([C@@]2(C)CC[C@@]3(C[C@@H](O)[C@H](C)[C@H]([C@H](C)[C@H](OC)[C@H](C)C(=O)O)O3)O2)O1 | – | – | – | – | – | – | – | 0.4 µM
CC1=C(O)C(=O)c2c3sc(c2C1=O)C(=O)[C@@H](C)C[C@H](C)C/C(C)=C/[C@@H](C)CC[C@@H](O)[C@H](C)[C@H](O)[C@@H]3C | 47 µM | ≥ 3.6 µM | > 30 µM | > 30 µM | 2.1 µM | > 30 µM | > 30 µM | 19 µM
CC1=C(O)C(=O)C2=C(C1=O)[C@H](S(=O)(=O)O)C(=O)[C@@H](C)C[C@H](C)C/C(C)=C/[C@@H](C)CC[C@@H]1O[C@@H]2[C@@H](C)[C@@H](O)[C@H]1C | 44 µM | ≥ 3.6 µM | > 30 µM | > 30 µM | 21 µM | > 30 µM | > 30 µM | 44 µM
CC(=O)N[C@@H](CSC1=C2C3=C(C)C(=O)C(O)=C2[C@@H]2O[C@@H](CC[C@H](C)/C=C(\C)C[C@@H](C)C[C@H](C)[C@]1(O)O3)[C@H](C)[C@H](O)[C@@H]2C)C(=O)O | 39 µM | ≥ 3.6 µM | > 30 µM | > 30 µM | 3.6 µM | > 30 µM | > 30 µM | 22 µM
CC(C)C[C@H](NC(=O)[C@H](C)NC(=O)CNC(=O)[C@@H](NC=O)C(C)C)C(=O)N[C@@H](C)C(=O)N[C@H](C(=O)N[C@H](C(=O)N[C@H](C(=O)N[C@@H](Cc1c[nH]c2ccccc12)C(=O)N[C@@H](CC(C)C)C(=O)N[C@@H](Cc1c[nH]c2ccccc12)C(=O)N[C@@H](CC(C)C)C(=O)N[C@@H](Cc1c[nH]c2ccccc12)C(=O)N[C@@H](CC(C)C)C(=O)N[C@@H](Cc1c[nH]c2ccccc12)C(=O)NCCO)C(C)C)C(C)C)C(C)C (For-VGALAVVVWLWLWLW-NHCH2CH2OH) | – | – | – | – | 0.1 µM | – | – | –
